Patent publication US20190062305A1, “PYRIDYL OR PYRAZINYL COMPOUNDS CARRYING A METHYL-BOUND ALPHA-AMINO ACID AMIDE GROUP” (ABBVIE DEUTSCHLAND GMBH & CO. KG, priority 2015, published 2019)
Counter-ions that a name gives are not always drawn.

What was measured:
[1] = biological target: T1, 5-HT2C receptor (Homo sapiens, UniProt P28335); test: Human 5-HT2C functional assay (beta-arrestin2 recruitment, U2OS_HTR2C_β-Arrestin cells); type: cell-based; details: for EC50: beta-arrestin2 recruitment, U2OS_HTR2C_β-Arrestin cells, 1.5 h incubation, read-out: EC50 5-HT2C (potency in functional assay); for Emax: relative efficacy vs response to 10 μM 5-HT or maximal 5-HT effect (100%)
T1 construct: host or cells: U2OS
How it was run: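 U2OS cells expressing HTR2C with β-galactosidase complementation, switched to 1% serum medium 24 h post-plating, were treated next day with compound for 1.5 h; chemiluminescence read. Response expressed as % of 10 µM 5-HT or maximal 5-HT effect; EC50 from 4-parameter variable-slope fit.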

[2] = Metabolic stability in human liver microsomes, unbound intrinsic clearance (Cl int/fu mic); type: in vitro ADME; details: human, liver microsomes, pH 7.4, human liver microsomes 0.25 mg/mL, 0.5 μM compound, NADPH, read-out: Cl int, mic unb. (h) [l/h/kg] (unbound intrinsic clearance, human)
How it was run: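 Compound (0.5 µM) was incubated with human liver microsomes (0.25 mg/mL) in pH 7.4 phosphate buffer at 37 °C with 1.0 mM NADPH, sampling from 0–30 min. Depletion was followed by LC-MS/MS, and CLint was derived from first-order t1/2 per mg protein. Microsomal unbound fraction came from 4 h equilibrium dialysis at 37 °C, giving CLint/fu mic.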

T1 sequence (P28335 33-458): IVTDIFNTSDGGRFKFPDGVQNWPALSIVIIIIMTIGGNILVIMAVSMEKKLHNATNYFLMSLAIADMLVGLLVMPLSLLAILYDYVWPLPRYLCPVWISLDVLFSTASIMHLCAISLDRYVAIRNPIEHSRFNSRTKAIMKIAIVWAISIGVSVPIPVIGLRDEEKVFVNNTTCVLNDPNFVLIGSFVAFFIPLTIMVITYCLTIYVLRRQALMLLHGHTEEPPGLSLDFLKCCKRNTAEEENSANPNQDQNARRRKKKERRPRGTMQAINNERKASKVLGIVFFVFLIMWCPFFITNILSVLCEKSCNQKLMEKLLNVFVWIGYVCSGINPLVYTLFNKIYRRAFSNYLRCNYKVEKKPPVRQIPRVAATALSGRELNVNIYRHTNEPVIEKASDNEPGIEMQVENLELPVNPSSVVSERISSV
T1 sequence (P32121 whole entry partner): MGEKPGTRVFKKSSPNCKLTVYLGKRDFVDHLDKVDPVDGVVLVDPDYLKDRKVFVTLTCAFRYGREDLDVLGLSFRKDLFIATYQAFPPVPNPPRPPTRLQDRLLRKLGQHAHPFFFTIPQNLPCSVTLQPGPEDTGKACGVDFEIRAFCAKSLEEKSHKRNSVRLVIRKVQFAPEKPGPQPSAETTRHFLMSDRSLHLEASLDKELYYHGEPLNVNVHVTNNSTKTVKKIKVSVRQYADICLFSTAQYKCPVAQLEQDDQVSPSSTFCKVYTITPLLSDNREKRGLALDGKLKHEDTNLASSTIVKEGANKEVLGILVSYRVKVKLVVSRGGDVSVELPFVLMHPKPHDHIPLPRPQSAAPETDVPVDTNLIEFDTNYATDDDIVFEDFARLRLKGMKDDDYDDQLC

Row | Structure (SMILES) | EC50 [1] [nM] | Emax [1] [%] | CLint scaled at 0.5 μM [2] [L/h/kg]
1 | COc1nc(N2CCC(CC(F)(F)F)C2)c(F)cc1CNC(=O)[C@@H]1CCCN1 (stereo partly drawn) [Example 187, (2S)—N-[[5-Fluoro-2-methoxy-6-[3-(2,2,2-trifluoroethyl)pyrrolidin-1-yl]-3-pyridyl]methyl]pyrrolidine-2-carboxamide; 2,2,2-trifluoroacetic Acid] | 20 to 200 | > 70 | 5 to 50
2 | COc1nc(OCC(F)(F)C(F)F)c(F)cc1CN(C)C(=O)[C@@H]1CCCN1C [Example 102, (2S)—N-[[5-Fluoro-2-methoxy-6-(2,2,3,3-tetrafluoropropoxy)-3-pyridyl]methyl]-N,1-dimethyl-pyrrolidine-2-carboxamide Hydrochloride] | 200 to 1000 | 50 to 70 | < 5
3 | COc1nc(OCC2CC2(F)F)c(F)cc1CNC(=O)[C@@H]1CCCN1C (stereo partly drawn) [Example 68, (2S)—N-[[6-[(2,2-Difluorocyclopropyl)methoxy]-5-fluoro-2-methoxy-3-pyridyl]-methyl]-1-methyl-pyrrolidine-2-carboxamide Hydrochloride] | < 20 | > 70 | < 5
4 | COc1nc(OCC(F)(F)F)c(F)cc1CNC(=O)[C@@H]1CCCN1 [Example 87, (2S)—N-[[5-Fluoro-2-methoxy-6-(2,2,2-trifluoroethoxy)-3-pyridyl]methyl]-pyrrolidine-2-carboxamide; 2,2,2-trifluoroacetic Acid] | < 20 | > 70 | < 5
5 | Cc1nc(OC2CCC(C(F)(F)F)CC2)ccc1CNC(=O)C1CCCN1 [Example 65, (S)—N-((2-Methyl-6-(((1R,4S)-4-(trifluoromethyl)cyclohexyl)oxy)pyridin-3-yl)methyl)pyrrolidine-2-carboxamide] | 20 to 200 | 50 to 70 | < 5
6 | COc1nc(N2CC(Oc3ccc(Cl)cc3)C2)c(F)cc1CNC(=O)[C@@H]1CCCN1 [Example 151, (2S)—N-[[6-[3-(4-Chlorophenoxy)azetidin-1-yl]-5-fluoro-2-methoxy-3-pyridyl]methyl]pyrrolidine-2-carboxamide; 2,2,2-trifluoroacetic Acid] | 200 to 1000 | > 70 | 50 to 500
7 | COc1nc(OC2CCCC2F)c(F)cc1CNC(=O)[C@@H]1CCCN1 (stereo partly drawn) [Example 93, (2S)—N-[[5-Fluoro-6-(2-fluorocyclopentoxy)-2-methoxy-3-pyridyl]methyl]-pyrrolidine-2-carboxamide; 2,2,2-trifluoroacetic Acid] | < 20 | > 70 | < 5
8 | COc1nc(OCC2CCCCC2)c(F)cc1CNC(=O)[C@@H]1CCCN1 [Example 3, (2S)—N-[[6-(Cyclohexylmethoxy)-5-fluoro-2-methoxy-3-pyridyl]methyl]pyrrolidine-2-carboxamide; 2,2,2-trifluoroacetic acid] | < 20 | > 70 | 5 to 50
9 | COc1nc(OC2CC(F)(F)C2)cnc1CNC(=O)[C@@H]1CCCN1 [Example 107, (2S)—N-[[5-(3,3-Difluorocyclobutoxy)-3-methoxy-pyrazin-2-yl]methyl]pyrrolidine-2-carboxamide; 2,2,2-trifluoroacetic Acid] | 200 to 1000 | > 70 | < 5
10 | COc1nc(OC2CC(F)(F)C2)c(F)cc1CNC(=O)[C@@H]1CCCN1 [Example 44, (2S)—N-[[6-(3,3-Difluorocyclobutoxy)-5-fluoro-2-methoxy-3-pyridyl]methyl]-pyrrolidine-2-carboxamide; Succinic Acid] | < 20 | > 70 | < 5
11 | COc1nc(NC2CCC2C(F)(F)F)c(F)cc1CNC(=O)[C@@H]1CCCN1 (stereo partly drawn) [Example 186, (2S)—N-[[5-Fluoro-2-methoxy-6-[[2-(trifluoromethyl)cyclobutyl]amino]-3-pyridyl]-methyl]pyrrolidine-2-carboxamide] | 20 to 200 | > 70 | < 5
12 | COc1nc(N2CC(Oc3ccccc3)C2)c(F)cc1CNC(=O)[C@@H]1CCCN1 [Example 175, (2S)—N-[[5-Fluoro-2-methoxy-6-(3-phenoxyazetidin-1-yl)-3-pyridyl]methyl]-pyrrolidine-2-carboxamide; 2,2,2-trifluoroacetic Acid] | 20 to 200 | 50 to 70 | 5 to 50
13 | COc1nc(N2CCc3ccccc32)c(F)cc1CNC(=O)[C@@H]1CCCN1 [Example 138, (2S)—N-[(5-Fluoro-6-indolin-1-yl-2-methoxy-3-pyridyl)methyl]pyrrolidine-2-carboxamide Hydrochloride] | 200 to 1000 | > 70 | 5 to 50
14 | COc1nc(O[C@H]2CC[C@@H](C(F)(F)F)CC2)c(F)cc1CNC(=O)[C@@H]1CCCN1C [Example 19, (2S)—N-[[5-Fluoro-2-methoxy-6-[cis-4-(trifluoromethyl)cyclohexoxy]-3-pyridyl]methyl]-1-methyl-pyrrolidine-2-carboxamide; Fumaric Acid] | < 20 | > 70 | 5 to 50
15 | COc1nc(OCCCC(F)(F)F)c(F)cc1CNC(=O)[C@@H]1CCCN1 [Example 40, (2S)—N-[[5-Fluoro-2-methoxy-6-(4,4,4-trifluorobutoxy)-3-pyridyl]methyl]-pyrrolidine-2-carboxamide; Succinic Acid] | < 20 | > 70 | < 5
16 | COc1nc(OC[C@H]2CCC(F)(F)C2)c(F)cc1CNC(=O)[C@@H]1CCCN1C [Example 17, (2S)—N-[[6-[[(1S)-3,3-Difluorocyclopentyl]methoxy]-5-fluoro-2-methoxy-3-pyridyl]methyl]-1-methyl-pyrrolidine-2-carboxamide; Fumaric Acid] | 20 to 200 | 50 to 70 | 5 to 50
17 | COc1nc(N2CCC(F)(F)CC2)c(F)cc1CN(C)C(=O)[C@@H]1CCCN1 [Example 165, (2S)—N-[[6-(4,4-Difluoro-1-piperidyl)-5-fluoro-2-methoxy-3-pyridyl]methyl]-N-methyl-pyrrolidine-2-carboxamide; 2,2,2-trifluoroacetic Acid] | 20 to 200 | 50 to 70 | < 5
18 | COc1nc(OC2CCC(F)(F)CC2)c(F)cc1CNC(=O)[C@@H]1CCCN1C [Example 10, (2S)—N-[[6-(4,4-Difluorocyclohexoxy)-5-fluoro-2-methoxy-3-pyridyl]methyl]-1-methyl-pyrrolidine-2-carboxamide; Fumaric Acid] | < 20 | > 70 | 5 to 50
19 | COc1nc(OC2CCC(F)(F)C2)c(F)cc1CNC(=O)[C@@H]1CCCN1C (stereo partly drawn) [Example 23, (2S)—N-[[6-(3,3-Difluorocyclopentoxy)-5-fluoro-2-methoxy-3-pyridyl]methyl]-1-methyl-pyrrolidine-2-carboxamide; Fumaric Acid] | < 20 | > 70 | < 5
20 | COc1nc(OCC(F)(F)F)c(F)cc1CNC(=O)[C@@H]1CCCN1C [Example 100, (2S)—N-[[5-Fluoro-2-methoxy-6-(2,2,2-trifluoroethoxy)-3-pyridyl]methyl]-1-methyl-pyrrolidine-2-carboxamide Hydrochloride] | < 20 | > 70 | < 5
21 | COc1nc(OCC(F)(F)F)c(F)cc1CN(C)C(=O)[C@@H]1CCCN1C [Example 113, (2S)—N-[[5-Fluoro-2-methoxy-6-(2,2,2-trifluoroethoxy)-3-pyridyl]methyl]-N,1-dimethyl-pyrrolidine-2-carboxamide Hydrochloride] | 200 to 1000 | 30 to 50 | < 5
22 | COc1nc(O[C@H]2CCC(F)(F)C2)c(F)cc1CNC(=O)[C@@H]1CCCN1C [Example 26, (2S)—N-[[6-[(1S)-3,3-Difluorocyclopentoxy]-5-fluoro-2-methoxy-3-pyridyl]methyl]-1-methyl-pyrrolidine-2-carboxamide Hydrochloride] | < 20 | > 70 | < 5
23 | COc1nc(O[C@H]2CC[C@@H](F)CC2)c(F)cc1CNC(=O)[C@@H]1CCCN1C [Example 29, (2S)—N-[[5-Fluoro-6-(cis-4-fluorocyclohexoxy)-2-methoxy-3-pyridyl]methyl]-1-methyl-pyrrolidine-2-carboxamide; Fumaric Acid] | < 20 | > 70 | < 5
24 | COc1nc(OC2CC(F)(F)C2)c(F)cc1CNC(=O)[C@@H]1CCCN1C [Example 71, (2S)—N-[[6-(3,3-Difluorocyclobutoxy)-5-fluoro-2-methoxy-3-pyridyl]methyl]-1-methyl-pyrrolidine-2-carboxamide Hydrochloride] | < 20 | > 70 | < 5
25 | COc1nc(O[C@@H]2CCC(F)(F)C2)c(F)cc1CNC(=O)[C@@H]1CCCN1C [Example 27, (2S)—N-[[6-[(1R)-3,3-Difluorocyclopentoxy]-5-fluoro-2-methoxy-3-pyridyl]methyl]-1-methyl-pyrrolidine-2-carboxamide Hydrochloride] | < 20 | > 70 | < 5
